This note sets out measurements from publication PMC8621605, “Cascade Transformations of 1-R-Ethynyl-9,10-anthraquinones with Amidines: Expanding Access to Isoaporphinoid Alkaloids” (Molecules, 2021).

Like-named read-outs stand apart in the source and are kept apart here. Bounds are passed on as bounds.

In data set [1] the test system is MCF7. Description: MTT cytotoxicity assay, breast cancer. The class given is cell-based, human. To be noted: for IC50: Homo sapiens, MCF7, 72 h, read-out: IC50 ± SEM, MCF7. How it is done: (§1) The cytotoxicity study of the quinolinones 2–3 was evaluated in vitro by MTT assay on immortalized humane fibroblasts (hTERT), humane breast cancer cell line (MCF7) and humane glioblastoma cell line (U-87MG and) versus doxorubicin as a reference compound.
(§2) Cell lines were obtained from the American Type Culture Collection: U-87 MG (ATCC number HBT-14), MCF7 (ATCC number HTB-22), A549 (ATCC number CRM-CCL), HeLa (ATCC number CCL-2). Immortalized human fibroblasts hTERT (as noncancerous control) were obtained from ICG SB RAS (Novosibirsk, Russia). DMEM with 10% fetal bovine serum (Gibco, Amarillo, TX, USA) was used for culturing. Optical density was measured on a Multiskan RC spectrophotometer (LabSystems, Vantaa, Finland). The MTT test was carried out according to the standard procedure using the reagent 3-(4,5-dimethylthiazol-2-yl)-2,5-diphen-yltetrazolium bromide (MTT, Sigma). Cells were seeded in 96 well plates at 5000 cells/well and incubated for 24 h at 37 C in 5% CO2. After 24 h, various concentrations of test compounds ([…]) in DMSO were added and the cells were incubated for an additional 72 h. The viability for DMSO (negative control) was calculated as 100%. All culture experiments were carried out independently three times with two repeats in the experiment, and the final result is presented as concentration, which causes 50% inhibition of cell population growth (IC50 ± SEM).

Data set [2] deals with Histamine-Induced Inflammation. Description: Histamine-induced mouse paw edema model. To be noted: for inhibition in vivo at 20 mg/kg: Mus musculus, ip, anti-inflammatory activity relative to control group, read-out: Histamine-Induced Inflammation AIA, %; for Histamine-Induced Inflammation IEI, %: inflammatory edema index, 20 mg/kg i.p. 1 h before histamine, mean ± SEM. The class given is in vivo, outbred albino male mice. An excerpt:
(§3) The anti-inflammatory activity of the synthesized compounds was investigated in vivo in comparison with indomethacin on two models of local inflammation induced by histamine or concanavalin A injection. The last one was used as the inductor of allergic-like inflammation, owing to its immunogenic activity. The results were expressed as values of inflammatory edema indexes (IEI) and percentages of anti-inflammatory activity (AIA) relative to the control group (Table 1).
(§4) The pharmacological studies were carried out on outbred albino male mice and C57BL/6 female mice weighing 20–25 g with eight animals in each group. The anti-inflammatory activity of compounds 2–3 was evaluated in the histamine-induced and concanavalin A-induced mouse paw edema models. The test compounds were dissolved in saline containing 0.5% Tween 80 just before intraperitoneal administration at the dose of 20 mg/kg. The reference agent indomethacin (‘Fluka BioChemica’) was administered by the same method and dose. The control group of animals received an equivalent volume of water–Tween mixture.
The 8 outbred male albino mice were subplantar injected into the hind paw with 0.05 mL 0.01% histamine (“Sigma Aldrich”, Saint Louis, MO, USA) in water solution. The tested compounds were administered 1 h before the histamine injection. The animals were sacrificed by cervical dislocation 5 h after the phlogogen injection.
(§5) Both hind paws were cut off at the ankle joint and weighed. The ratio of the difference in weight between the treated and untreated hind paws to the weight of the untreated hind paw was used as an inflammatory edema index (IEI). The relative percentage of IEI versus control IEI (100%) was calculated for each test group. The anti-inflammatory activity (AIA) was presented as a difference between 100% in the control group and relative percentage of IEI in the test group.

The test system of data set [3] is A549. Put plainly: MTT cytotoxicity assay, A549. Conditions: Homo sapiens, 72 h, read-out: IC50 ± SEM, A549. The class given is cell-based. How it is done:
as §2

For data set [4], the system named is hTERT. Put plainly: MTT cytotoxicity assay, immortalized fibroblasts. The class given is cell-based, human. To be noted: for IC50: Homo sapiens, Fibroblast, 72 h, read-out: IC50 ± SEM, hTERT. How it is done:
as §1, §2

The test system of data set [5] is HeLa. Put plainly: MTT cytotoxicity assay, cervical cancer. The format is cell-based. To be noted: for IC50: 72 h, MTT, read-out: IC50 ± SEM, HeLa; for cytotoxicity lower than doxorubicin: ratio of IC50. How it is done: as §2
For data set [6], the system named is U-87 MG. Description: MTT cytotoxicity assay, glioblastoma. The class given is cell-based, human. To be noted: for IC50: Homo sapiens, U-87 MG, 72 h, read-out: IC50 ± SEM, U-87 MG. How it is done:
as §1, §2

In data set [7] the test system is Concanavalin A-Induced Inflammation. Description: Concanavalin A-induced mouse paw edema model. The format is in vivo, C57BL/6 female mice. Conditions: for activity higher than that of indomethacin (reference drug): 20 mg/kg double i.p. administration; for inhibition in vivo at 20 mg/kg: Mus musculus, ip, anti-inflammatory activity relative to control group, read-out: Concanavalin A-Induced Inflammation AIA, %; for inhibition in vivo at 20 mg/kg / Concanavalin A-Induced Inflammation IEI, %: 20 mg/kg i.p. twice; for Concanavalin A-Induced Inflammation IEI, %: inflammatory edema index, 24 h and 1 h before phlogogen, mean ± SEM.
Description: as §3, §4
The 8 female mice C57Bl/6 were subplantar injected into the hind paw with 0.02 mL 0.5% concanavaline A (“Sigma Aldrich”) aqueous solution. The test compounds were administered twice 24 h and 1 h before phlogogen. The animals were sacrificed by cervical dislocation 1 h after the phlogogen injection.
as §5

`O=C1c2ccccc2-c2nc(-c3ccc([N+](=O)[O-])cc3)cc3cccc1c23` [3c, 2-(p-nitrophenyl)-7H-dibenzo[de,h]quinolin-7-one] came in with a melting point of 295 to 296 °C.
On to `CCCCCc1cc2cccc3c2c(n1)-c1ccccc1C3=O` [3h], for which the IC50 in data set [1] is above 100 µM; in data set [3] it was above 100 µM; in data set [4] it was above 100 µM; in data set [5] (Homo sapiens, HeLa), above 100 µM; in data set [6] it was above 100 µM. Also, the results for the inhibition in vivo at 20 mg/kg in data set [2] (20 mg/kg i.p.) and in data set [7] were 30% and 48%, respectively. In addition, the “Histamine-Induced Inflammation IEI, %” value in data set [2] worked out at 23.9 ± 1.7 %. Further, in data set [7], the “activity higher than that of indomethacin (reference drug)” value is given as 1.3–1.4 times. Also, in data set [7], the “Concanavalin A-Induced Inflammation IEI, %” value is 19.7 ± 2.3 %.
As to `CN(C)c1ccc(-c2cc3cccc4c3c(n2)-c2ccccc2C4=O)cc1` [3i], the IC50 in data set [1] was above 100 µM; in data set [3] it was above 100 µM; in data set [4], above 100 µM; in data set [5] (Homo sapiens, HeLa), above 100 µM; in data set [6], above 100 µM. Also, the “anti-inflammatory effect (in words)” value in data set [2] (20 mg/kg i.p.) and in data set [7] (20 mg/kg i.p.) was “most potent effects” each time. Besides, the inhibition in vivo at 20 mg/kg in data set [2] (20 mg/kg i.p.) is 34%; in data set [7] it was 51%. Also, in data set [2], the “Histamine-Induced Inflammation IEI, %” value is given as 22.6 ± 2.3 %. For the same molecule, the “activity higher than that of indomethacin (reference drug)” value in data set [7] is on record as 1.3–1.4 times. In addition, the “Concanavalin A-Induced Inflammation IEI, %” value in data set [7] was 18.5 ± 1.6 %.
As for `CC(C)(O)c1cc2cccc3c2c(n1)-c1ccccc1C3=O` [3j], the “antitumor effect on breast cancer cell culture (in words)” value in data set [1] is listed as “weak antitumor effect”. For the same molecule, the IC50 was 92.9 ± 7.2 µM in data set [1]; above 100 µM in data set [3]; above 100 µM in data set [4]; 21.3 ± 5.9 µM in data set [5] (Homo sapiens, HeLa); 50.1 ± 5.9 µM in data set [6]. The inhibition in vivo at 20 mg/kg in data set [2] (20 mg/kg i.p.) was 16%; in data set [7], 41%. Besides, the “Histamine-Induced Inflammation IEI, %” value in data set [2] was 28.9 ± 2.0 %. In addition, the “cytotoxic effect on immortal fibroblasts (in words)” value in data set [4] is listed as “did not have a cytotoxic effect”. Also, the “cytotoxicity lower than doxorubicin” value in data set [5] (HeLa) came to 3.5 times. The “antitumor effect on multiform glioblastoma cell culture (in words)” value in data set [6] is given as “weak antitumor effect”. For the same molecule, in data set [7], the “Concanavalin A-Induced Inflammation IEI, %” value came to 22.1 ± 2.5 %.
Consider `Cc1c(-c2cc3cccc4c3c(n2)-c2ccccc2C4=O)cnn1C` [3k], for which the IC50 in data set [1] is above 100 µM; in data set [3], above 100 µM; in data set [4], above 100 µM; in data set [5] (Homo sapiens, HeLa), 21.3 µM; in data set [5], 22.7 ± 7.3 µM; in data set [6], above 100 µM. Further, the inhibition in vivo at 20 mg/kg in data set [2] (20 mg/kg i.p.) came to 34%; in data set [7] it was 18%. In data set [2], the “Histamine-Induced Inflammation IEI, %” value was 22.7 ± 1.7 %. For the same molecule, in data set [4], the “cytotoxic effect on immortal fibroblasts (in words)” value was “did not have a cytotoxic effect”. The “cytotoxicity lower than doxorubicin” value in data set [5] (HeLa) was 3.5 times. Also, the “Concanavalin A-Induced Inflammation IEI, %” value in data set [7] is given as 31.1 ± 2.4 %.
`COc1ccc(C(=O)c2c(C)nc3c4c(cccc24)C(=O)c2ccccc2-3)cc1` [4d, 2-methyl-3-(p-methoxybenzoyl)-7H-dibenzo[de,h]quinolin-7-one] returned a melting point of 232.5 to 233.5 °C.
`COc1cccc2c1C(=O)c1c(O)c3c(c(O)c1C2=O)C[C@@](O)(C(=O)CO)C[C@@H]3O[C@H]1C[C@H](N)[C@H](O)[C@H](C)O1` [Doxorubicin, doxorubicin, reference compound]: the IC50 in data set [1] came out at 3.6 ± 0.4 µM; in data set [3], 4.05 ± 0.9 µM; in data set [4], 4.1 ± 1 µM; in data set [5] (Homo sapiens, HeLa), 6 ± 1 µM; in data set [6], 2.3 ± 0.6 µM.
Regarding `COc1ccc2c(c1)c(CC(=O)O)c(C)n2C(=O)c1ccc(Cl)cc1` [Indomethacin, indomethacin, reference compound], the figures for the inhibition in vivo at 20 mg/kg in data set [2] (20 mg/kg i.p.) and in data set [7] were 48% and 38%, respectively. The “Histamine-Induced Inflammation IEI, %” value in data set [2] was found to be 17.8 ± 2.7 %. Besides, the “Concanavalin A-Induced Inflammation IEI, %” value in data set [7] is 23.4 ± 2.2 %.
